The results in this text go back to patent publication US20230128688A1, “DIRECTED CONJUGATION TECHNOLOGIES” (KLEO PHARMACEUTICALS, INC., priority 2019, published 2023).

The experiment deals with daratumumab. Briefly: Absorbance based DAR analysis of FITC conjugation to antibody. In kind it is biochemical. On the procedure: In some embodiments, reaction partners, e.g., compounds of formula R-I or salts thereof ere dissolved in DMSO to 5 mM stock solution.
In some embodiments, reactions are set up with 300 micrograms of antibody. In some embodiments, various conditions, including various buffers, reagent equivalents, reaction time, reaction temperature and reaction concentrations can be utilized.
As an example, one reaction is 300 microliter reaction with 1 mg/mL of antibody in PBS. Peptide I-45 (1 microliter of 5 mM stock in DMSO, 2.5 molar equivalents relative to daratumumab) was diluted in 284 microliters of PBS buffer (10 mM phosphate, 150 mM sodium chloride, pH 7.4), then 15 microliters of daratumumab (20 mg/mL stock) was added to the reaction mixture followed by incubation at room temperature in the dark. After 4 h reaction buffer was exchanged using Amicon Ultra centrifuge filter (30 KDa MWCO, 0.5 mL volume). First, glycine buffer (100 mM, pH 2.1) was used for buffer exchange to ensure dissociation of target binding moieties after reaction. Then, phosphate buffer saline (pH 7.4) was used for further buffer exchange and storage.
In another example, a reaction is 300 microliter reaction with 1 mg/mL of antibody in borate buffer. Peptide I-44 (1.2 microliter of 5 mM stock in DMSO, 3.0 molar equivalents relative to daratumumab) was diluted in 284 microliters of Borate buffer (100 mM borate, pH 8.3), then 15 microliters of daratumumab (20 mg/mL stock) was added to the reaction mixture followed by incubation at room temperature in the dark. After 20 h reaction buffer was exchanged using Amicon Ultra centrifuge filter (30 KDa MWCO, 0.5 mL volume). First, glycine buffer (100 mM, pH 2.1) was used for buffer exchange to ensure dissociation of target binding moieties after reaction. Then, phosphate buffer saline (10 mM phosphate, 150 mM sodium chloride, pH 7.4) was used for further buffer exchange and storage.
In some embodiments, a useful technology is absorbance based DAR analysis. DAR (ratio of moieties of interest and target agent moieties (e.g., antibody agent moieties) was calculated for various antibody conjugates, e.g., in various reagent screening/assessment methods. Various agents comprising target binding moieties were assessed for conjugation efficiency as reaction partners with targets, e.g. protein agents such as antibody agents, compared to reagents with the same reactive groups but without target binding moieties. In various ratio determination ‘Drug’/moiety of interest is fluorescein isothiocyanate (FITC) dye conjugated to target agents, e.g., antibody agents. DAR molar ratio is defined as a ratio of moles of drug/moiety of interest to moles of target agent/antibody. Molarity is calculated from absorbance of FITC (A485) and antibody (A280) of conjugated product, and extinction coefficients of FITC and antibody using Beer-Lambert law. Correction coefficient 0.35 was used to correct for absorbance of FITC at 280 nm. Biotek Synergy H1 microplate reader and Take3 microvolume plate were used for absorbance measurements. Concentration of antibody was at least 3 mg/mL for optimal signal-to-noise in the readings. Certain target binding moieties that can provide higher DAR compared to equivalent controls (absence of target binding moieties) were selected as hits for further analysis. Certain assessment data were provided below as examples.

Setting [1] is: 10 M eq reagent, Bicarbonate buffer pH 8.3, 2 h, 37 C, Drug = FITC.
Setting [2] is: 30 M eq reagent, borate buffer pH 8.3, 20 h, 37 C, Drug = FITC.
[3] abbreviates: 2.5 M eq reagent, phosphate buffer saline pH 7.4, 4 h, 25 C, Drug = FITC.
The mark [4] stands for this setting: 2.5 M eq, 25 C, 4 h, PBS pH 7.4.
Where [5] appears, read: 2.5 M eq, 25 C, 20 h, Borate pH 8.2.
Where [6] appears, read: 2.5 M eq, 25 C, 20 h, PBS pH 7.4.
The mark [7] stands for this setting: 2.5 M eq, 25 C, 20 h, PBS pH 7.8.
Where [8] appears, read: 2.5 M eq, 25 C, 20 h, PBS pH 8.0.
Setting [9] is: 2.5 M eq, 25 C, 20 h, PBS pH 8.2.
Setting [10] is: 2.5 M eq, 30 C, 20 h, PBS pH 7.4.
Setting [11] is: 2.5 M eq, 37 C, 20 h, PBS pH 7.4.

Non-standard residues stand in square brackets, D forms with d. Residues, ends and D or L forms follow the SMILES beside them. *: point of attachment. FITC = O=C1OC2(c3ccc(O)cc3Oc3cc(O)ccc32)c2ccc(NC(=S)*)cc21; PEG6 = NCCOCCOCCOCCOCCOCCOCCC(=O)O; PEG2 = NCCOCCOCCC(=O)O; X7 = Fc1ccc(O*)cc1

As to `CCCCNc1nc(NCCOCCOCCC(=O)NCc2ccc(OC(=O)CCOCCOCCOCCOCCOCCOCCNC(=S)Nc3ccc4c(c3)C(=O)OC43c4ccc(O)cc4Oc4cc(O)ccc43)c(F)c2)nc(NCc2cccc(F)c2)n1` [Compound I-14], the DAR under setting [1] is 0.29.

As to `N=C(N)NCCC[C@H](NC(=O)CCOCCOCCNC(=O)[C@@H](CCC(=O)Oc1ccc(F)cc1)NC(=O)CCOCCOCCOCCOCCOCCOCCNC(=S)Nc1ccc2c(c1)C(=O)OC21c2ccc(O)cc2Oc2cc(O)ccc21)C(=O)N[C@@H](CCCNC(=N)N)C(=O)NCC(=O)N[C@@H](Cc1c[nH]c2ccccc12)C(=O)O` [Compound I-26] ({FITC-PEG6}-[dE](X7)[PEG2]RRGW-OH), under setting [2], the DAR is on record as −0.10.

As for `CC(=O)N[C@@H](CC(=O)O)C(=O)N[C@H]1CSSC[C@@H](C(=O)N[C@H](C(=O)O)[C@@H](C)O)NC(=O)[C@H](Cc2c[nH]c3ccccc23)NC(=O)[C@H](C(C)C)NC(=O)[C@H](CC(C)C)NC(=O)[C@H](CCC(=O)O)NC(=O)CNC(=O)[C@H](CC(C)C)NC(=O)[C@H](CC(=O)NCc2ccc(OC(=O)CCOCCOCCOCCOCCOCCOCCNC(=S)Nc3ccc4c(c3)C(=O)OC43c4ccc(O)cc4Oc4cc(O)ccc43)cc2)NC(=O)[C@H](Cc2c[nH]c3ccccc23)NC(=O)[C@H](C)NC1=O` [Compound I-43], the DAR under setting [3] came to 0.26.

In the case of `N=C(N)NCCC[C@H](NC(=O)CCOCCOCCNC(=O)c1ccc(OC(=O)CCOCCOCCOCCOCCOCCOCCNC(=S)Nc2ccc3c(c2)C(=O)OC32c3ccc(O)cc3Oc3cc(O)ccc32)cc1)C(=O)N[C@@H](CCCNC(=N)N)C(=O)NCC(=O)N[C@@H](Cc1c[nH]c2ccccc12)C(=O)O` [Compound I-23], the DAR (10 M eq reagent, Bicarbonate buffer pH 8.3, 20 h, 25 C, Drug = FITC) came out at 0.14.

Take `CC(=O)NCc1ccc(OC(=O)CCOCCOCCOCCOCCOCCOCCNC(=S)Nc2ccc3c(c2)C(=O)OC32c3ccc(O)cc3Oc3cc(O)ccc32)c(F)c1` [Compound I-10]: the DAR runs as follows: under setting [3], 0.08; under setting [4], 0.08; under setting [5], 0.21; under setting [6], 0.07; under setting [7], 0.15; under setting [8], 0.06. Besides, the DAR by setting is: under setting [9], 0.03; under setting [10], 0.05; under setting [11], 0.17; under setting [1], 0.14; under setting [2], 0.98.

As to `CCCCNc1nc(NCCOCCOCCC(=O)NCc2ccc(OC(=O)CCOCCOCCOCCOCCOCCOCCNC(=S)Nc3ccc4c(c3)C(=O)OC43c4ccc(O)cc4Oc4cc(O)ccc43)cc2)nc(NCc2cccc(F)c2)n1` [Compound I-15], the DAR under setting [1] was found to be 0.74.

Consider `CC(=O)N[C@@H](CC(=O)O)C(=O)N[C@H]1CSSC[C@@H](C(=O)N[C@H](C(=O)O)[C@@H](C)O)NC(=O)[C@H](Cc2c[nH]c3ccccc23)NC(=O)[C@H](C(C)C)NC(=O)[C@H](CC(C)C)NC(=O)[C@H](CCC(=O)O)NC(=O)CNC(=O)[C@H](CC(C)C)NC(=O)[C@H](CC(=O)NCc2ccc(OC(=O)CCOCCOCCOCCOCCOCCOCCOCCOCCNC(=S)Nc3ccc4c(c3)C(=O)OC43c4ccc(O)cc4Oc4cc(O)ccc43)c(F)c2)NC(=O)[C@H](Cc2c[nH]c3ccccc23)NC(=O)[C@H](C)NC1=O` [Compound I-44], for which the DAR came out at 0.59 under setting [3]; 0.59 under setting [4]; 1.42 under setting [5]; 1.09 under setting [6]; 1.00 under setting [7]; 0.99 under setting [8]. Besides, the DAR is 1.14 under setting [9], 1.15 under setting [10] and 1.66 under setting [11]. Besides, the “Fold (DAR I-44 over I-10)” value came to 7.79 under setting [4]; 6.83 under setting [5]; 16.08 under setting [6]; 6.58 under setting [7]; 15.39 under setting [8]; 36.42 under setting [9]. Besides, the “Fold (DAR I-44 over I-10)” value is, setting by setting: under setting [10], 21.43; under setting [11], 9.77. The “FITC DAR” value (FIG. 16 (e): Borate buffer pH 8.2, 25 C, 20 h, 2.5 M eq) was 0.21.
